Key:
[1] = target: T1, Brd2(1) (Homo sapiens, UniProt P25440); assay: DSF thermal shift; assay type: binding; settings: wild type
T1 construct: Plasmids of the eight single BET bromodomain constructs Brd2(1), Brd2(2), Brd3(1), Brd3(2); His6 (N); made in house; host or cells: E. coli BL21(DE3)

[2] = target: T2, Brd2(2) (Homo sapiens, UniProt P25440); assay: DSF thermal shift; assay type: binding; settings: wild type
T2 construct: Plasmids of the eight single BET bromodomain constructs Brd2(1), Brd2(2), Brd3(1), Brd3(2); His6 (N); made in house; host or cells: E. coli BL21(DE3)

[3] = target: T3, Brd4(1) (Homo sapiens, UniProt O60885); assay: DSF thermal shift; assay type: binding; settings: wild type
T3 construct: Plasmids of the eight single BET bromodomain constructs Brd2(1), Brd2(2), Brd3(1), Brd3(2), Brd4(1), Brd4(2), Brdt(1) and Brdt(2); His6 (N); made in house; host or cells: E. coli BL21(DE3)

[4] = target: T4, Brd4(2) (Homo sapiens, UniProt O60885); assay: DSF thermal shift; assay type: binding; settings: wild type
T4 construct: Plasmids of the eight single BET bromodomain constructs Brd2(1), Brd2(2), Brd3(1), Brd3(2), Brd4(1), Brd4(2), Brdt(1) and Brdt(2); His6 (N); made in house; host or cells: E. coli BL21(DE3)

[5] = target: T5, brd4(1)L094A (Homo sapiens, UniProt O60885, L94A); assay: DSF thermal shift; assay type: binding; settings: mutant
T5 construct: Plasmids of the eight single BET bromodomain constructs Brd2(1), Brd2(2), Brd3(1), Brd3(2), Brd4(1), Brd4(2), Brdt(1) and Brdt(2); His6 (N); made in house; host or cells: E. coli BL21(DE3)

[6] = target: T6, brd4(2)L387A (Homo sapiens, UniProt O60885, L387A); assay: DSF thermal shift; assay type: binding; settings: mutant
T6 construct: Plasmids of the eight single BET bromodomain constructs Brd2(1), Brd2(2), Brd3(1), Brd3(2), Brd4(1), Brd4(2), Brdt(1) and Brdt(2); His6 (N); made in house; host or cells: E. coli BL21(DE3)

[7] = target: T1, Brd2(1); assay: ITC reverse titration of protein into compound; assay type: binding; settings: for ΔH Brd2(1): ITC 30° C., 1% DMSO
Method: (§1) ITC experiments were carried out on a ITC200 instrument from MicroCal™ Experiments were conducted at 3 different temperatures 15° C., 25° C. and 30° C., while stirring at 1000 rpm. Buffers of proteins, peptide and compounds were matched to 20 mM HEPES pH 7.5 at 25° C. and 100 mM NaCl. Frozen protein was buffer exchanged as described for the DSF experiments. Each titration comprised 1 initial injection of 0.4 μl lasting 0.8 s, followed by 19 injections of 2 μl lasting 4 s each at 2 min intervals. The initial injection was discarded during data analysis. Standard and reverse titrations were conducted depending on the binding partners.
(§2) Reverse titrations were conducted to test the binding of the known ligands and the novel chemical probes to the wild types and the mutants. Experiments were carried out either at 25° C. or 30° C. […] In cases where the compound was solubilized in dimethyl sulfoxide, DMSO concentration was adjusted to 1% both in the syringe and in the cell.
(§3) All the data was fitted to a single binding site model using the Microcal LLC ITC200 Origin software provided by the manufacturer to yield enthalpies of binding (ΔH) and binding constants (Kas). Further thermodynamic parameters were calculated from these values (changes in entropy ΔS, changes in free energy AG and dissociation constants (Kds)).

[8] = target: T2, Brd2(2); assay: ITC reverse titration of protein into compound; assay type: binding; settings: ITC 30° C., 1% DMSO; for Kd: Kd Brd2(2)
Method: as §1, §2, §3

[9] = Solubility observations; settings: observation in words
[10] = target: T7, Brd2(1)*(Leu110-Ala) (Homo sapiens, UniProt P25440, L110A); assay: DSF thermal shift; assay type: binding; set-up: Plasmids of the eight single BET bromodomain constructs Brd2(1), Brd2(2), Brd3(1), Brd3(2); His6 (N); made in house; host or cells: E. coli BL21(DE3); settings: mutant
Method: (§4) DSF assays were performed on a LightCycler®480 from Roche or a Mx3005P Real Time PCR machine from Stratagene. […] SYPRO®Orange from Invitrogen Molecular Probes® was used as a reporter dye to monitor the denaturing process of the proteins. Samples were assayed on a 96-well plate with final protein concentrations of 2 μM for the LightCycler®480 and 6 μM for Mx3005P. Compounds were added at a final concentration of 10 μM for the LightCycler®480 and 30 μM for Mx3005P, while the tetra acetylated histone peptide was added to a final concentration of 100 μM and 300 μM respectively. […] The temperature was raised with a step of 0.6° C. per minute from 37° C. to 95° C. with the LightCycler®480 collecting 39 measurements per ° C., and 1° C. per minute from 25° C. to 95° C. with Mx3005P, collecting fluorescence readings at the end of each interval. Each sample was run in triplicates.
(§5) Collected data was analysed by IGOR Pro 6, a scientific software tool from Wave Metrics, Inc. Analysis was done following the recommendations of Niesen et al.. Fluorescence intensity was plotted as a function of temperature, generating a sigmoidal curve described by a two-state transition from folded to unfolded protein. Curves were fitted by the following sigmoidal equation: […]
(§6) A1 and A2 are the values of minimum and maximum intensities, respectively, x0 is the inflection point and dx is the rate. Fitted curves were differentiated in IGOR Pro 6 and the maximum of the first derivative was identified using the same program. These values correspond to the inflection points of the transition curves and thus to the melting temperatures of the proteins (Tm).

[11] = target: T8, Brd2(2)*(Leu383-Ala) (Homo sapiens, UniProt P25440, L383A); assay: DSF thermal shift; assay type: binding; set-up: Plasmids of the eight single BET bromodomain constructs Brd2(1), Brd2(2), Brd3(1), Brd3(2); His6 (N); made in house; host or cells: E. coli BL21(DE3); settings: mutant
Method: as §4, §5, §6

[12] = target: T7, Brd2(1)*(Leu110-Ala); assay: ITC reverse titration of protein into compound; assay type: binding; set-up: Plasmids of the eight single BET bromodomain constructs Brd2(1), Brd2(2), Brd3(1), Brd3(2), Brd4(1), Brd4(2), Brdt(1) and Brdt(2); His6 (N); made in house; host or cells: E. coli BL21(DE3); settings: for ΔH Brd2(1)* (Leu110-Ala): ITC 30° C., 1% DMSO
Method: as §1, §2, §3

[13] = target: T8, Brd2(2)*(Leu383-Ala); assay: ITC reverse titration of protein into compound; assay type: binding; set-up: Plasmids of the eight single BET bromodomain constructs Brd2(1), Brd2(2), Brd3(1), Brd3(2), Brd4(1), Brd4(2), Brdt(1) and Brdt(2); His6 (N); made in house; host or cells: E. coli BL21(DE3); settings: ITC 30° C., 1% DMSO; for Kd: Kd Brd2(2)* (Leu383-Ala)
Method: as §1, §2, §3

[14] = tested on: Brd2(1) and (2) wild type and leucine to alanine, valine and isoleucine mutants; assay: DSF thermal stabilization (FIG. 15); assay type: binding, human; settings: result in words
Method: as §4, §5, §6

[15] = target: T9, Brd2(1)*(Val103-Ala) (Homo sapiens, UniProt P25440, V103A); assay: DSF thermal shift; assay type: binding; settings: mutant
T9 construct: Plasmids of the eight single BET bromodomain constructs Brd2(1), Brd2(2), Brd3(1), Brd3(2); His6 (N); made in house; host or cells: E. coli BL21(DE3)

[16] = target: T10, Brd2(2)*(Val376Ala) (Homo sapiens, UniProt P25440, V376A); assay: DSF thermal shift; assay type: binding; settings: mutant
T10 construct: Plasmids of the eight single BET bromodomain constructs Brd2(1), Brd2(2), Brd3(1), Brd3(2); His6 (N); made in house; host or cells: E. coli BL21(DE3)
T10 sequence (P25440 344-453 V376A limits assumed): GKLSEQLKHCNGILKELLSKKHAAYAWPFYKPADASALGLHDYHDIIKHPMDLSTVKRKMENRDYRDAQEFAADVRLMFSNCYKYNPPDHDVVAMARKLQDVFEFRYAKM

T1 sequence (P25440 74-180 limits assumed): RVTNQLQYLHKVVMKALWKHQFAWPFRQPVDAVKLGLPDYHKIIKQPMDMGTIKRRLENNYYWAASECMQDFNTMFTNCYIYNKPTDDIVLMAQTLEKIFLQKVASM
T8 sequence (P25440 344-453 L383A limits assumed): as the sequence (P25440 344-453 V376A limits assumed) above, with A33V, L40A counted along it
T9 sequence (P25440 74-180 V103A limits assumed): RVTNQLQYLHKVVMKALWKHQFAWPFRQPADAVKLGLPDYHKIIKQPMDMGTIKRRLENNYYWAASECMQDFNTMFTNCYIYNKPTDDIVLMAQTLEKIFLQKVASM
T2 sequence (P25440 344-453 limits assumed): as the sequence (P25440 344-453 V376A limits assumed) above, with A33V counted along it
T7 sequence (P25440 74-180 L110A limits assumed): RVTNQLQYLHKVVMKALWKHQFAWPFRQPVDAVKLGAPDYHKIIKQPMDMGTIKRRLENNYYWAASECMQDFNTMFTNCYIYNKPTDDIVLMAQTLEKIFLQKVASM

| Structure (SMILES) | ΔTm Brd2(1) [1] | ΔTm Brd2(2) [2] | ΔTm Brd4(1) [3] | ΔTm Brd4(2) [4] | ΔTm Brd4(1)* (L094A) [5] | ΔTm Brd4(2)* (L387A) [6] | Kd [7] | ΔH Brd2(1) [7] | ΔH Brd2(2) [8] | Kd [8] | Solubility [9] | ΔTm Brd2(1)*(Leu110-Ala) [10] | ΔTm Brd2(2)*(Leu383-Ala) [11] | Kd [12] | ΔH Brd2(1)* (Leu110-Ala) [12] | ΔH Brd2(2)* (Leu383-Ala) [13] | Kd [13] | ΔTm Brd2(1)*(Val103-Ala) [15] | ΔTm Brd(2)*(Val376-Ala) [16] | also measured |
| --- | --- | --- | --- | --- | --- | --- | --- | --- | --- | --- | --- | --- | --- | --- | --- | --- | --- | --- | --- | --- |
| COC(=O)[C@H](CC1CC1)[C@@H]1N=C(c2ccc(Cl)cc2)c2cc(OC)ccc2-n2c(C)nnc21 (racemic) [Compound 13, (+−)-methyl (R)-2-((S)-6-(4-chlorophenyl)-8-methoxy-1-methyl-4H-benzo[f][1,2,4]triazolo[4,3-a][1,4]diazepin-4-yl)-3-cyclopropylpropanoate] | 0.5 ± 0.3 K | 3.7 ± 0.6 K | 1.2 ± 0.6 K | 2.0 ± 1.0 K | 5.6 ± 0.3 K | 5.8 ± 0.1 K | 4310 ± 3050 nM | -3.402 ± 0.4335 kcal/mol | -2.089 ± 0.211 kcal/mol | 3320 ± 1860 nM | lower than that for compounds with smaller bumps | 3.7 ± 0.2 K | 5.3 ± 0.3 K | 360 ± 68.2 nM | −9662 ± 162.7 cal/mol | -7.868 ± 0.3365 kcal/mol | 667 ± 330 nM |  |  |  |
| CCC[C@@H](C(=O)OC)[C@@H]1N=C(c2ccc(Cl)cc2)c2cc(OC)ccc2-n2c(C)nnc21 (racemic) [Compound 12, (+−)-methyl (R)-2-((S)-6-(4-chlorophenyl)-8-methoxy-1-methyl-4H-benzo[f][1,2,4]triazolo[4,3-a][1,4]diazepin-4-yl)pentanoate] | 1.7 ± 0.2 K | 2.1 ± 0.1 K | 2.9 ± 0.7 K | 3.2 ± 0.7 K | 6.4 ± 0.8 K | 6.7 ± 0.2 K | 5880 ± 1210 nM | -11.49 ± 1.048 kcal/mol | -9.52 ± 0.5449 kcal/mol | 2390 ± 1480 nM | lower than that for compounds with smaller bumps | 4.0 ± 0.4 K | 5.0 ± 0.1 K | 400 ± 82.4 nM | −11160 ± 241.8 cal/mol | -7.095 ± 0.1069 kcal/mol | 265 ± 53.9 nM |  |  | Thermal stabilization of Brd2 mutants versus wild types (FIG. 15) [14]: smaller shifts |
| CCNC(=O)CC1N=C(c2ccc(Cl)cc2)c2cc(OC)cc(C)c2-n2c(C)nnc21 (centres unmarked) [Compound 19] | 0.5 ± 0.2 K | 3.8 ± 0.1 K |  |  |  |  |  |  |  |  |  |  |  |  |  |  |  | 0.4 ± 0.3 K | 1.3 ± 0.1 K |  |
| COC(=O)CC1N=C(c2ccc(Cl)cc2)c2cc(OC)cc(C)c2-n2c(C)nnc21 (centres unmarked) [Compound 4, Methyl 2-(6-(4-chlorophenyl)-8-methoxy-1,10-dimethyl-4H benzo[f][1,2,4]triazolo[4,3-a][1,4]diazepin-4-yl)acetate] | 0.7 ± 0.2 K | 4.0 ± 0.1 K |  |  |  |  |  |  |  |  |  |  |  |  |  |  |  | 0.5 ± 0.3 K | 1.2 ± 0.1 K | Thermal stabilisation brd2(1) [1]: 0.7 ± 0.2 °C; Thermal stabilisation brd2(1)V103A [15]: 0.5 ± 0.3 °C; Thermal stabilisation brd2(2) [2]: 4.0 ± 0.1 °C; Thermal stabilisation brd2(2)V376A [16]: 1.2 ± 0.1 °C |

From patent US20170122958A1, “Enzymes Functional Probes” (University of Dundee, priority 2013, published 2017)
